#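 Following 48 hours of exposure in 96-well plates, responses at five concentrations were used to interpolate endpoints linearly. Here, GI50 denotes the concentration required for 50% inhibition of growth. The concentration for full growth arrest is given as TGI.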
# How the values were obtained:
# Assay in all cases: growth of human tumour cells (NCI), 48 h
# HCC-2998 colon = test system: HCC-2998 colon
# HOP-92 NSCLC = test system: HOP-92 NSCLC
# KM12 colon = test system: KM12 colon
# M14 melanoma = test system: M14 melanoma
# SF-268 CNS = test system: SF-268 CNS
# SNB-75 CNS = test system: SNB-75 CNS
# UACC-257 melanoma = test system: UACC-257 melanoma
# K-562 leukemia = test system: K-562 leukemia
# HS 578T breast = test system: HS 578T breast
# T-47D breast = test system: T-47D breast
Compound,TGI (HCC-2998 colon) [µM],TGI (HOP-92 NSCLC) [µM],TGI (KM12 colon) [µM],TGI (M14 melanoma) [µM],TGI (SF-268 CNS) [µM],TGI (SNB-75 CNS) [µM],TGI (UACC-257 melanoma) [µM],TGI (K-562 leukemia) [µM],GI50 (HOP-92 NSCLC) [µM],GI50 (K-562 leukemia) [µM],GI50 (KM12 colon) [µM],GI50 (M14 melanoma) [µM],GI50 (SF-268 CNS) [µM],GI50 (SNB-75 CNS) [µM],GI50 (UACC-257 melanoma) [µM],GI50 (HCC-2998 colon) [µM],GI50 (HS 578T breast) [µM],TGI (HS 578T breast) [µM],GI50 (T-47D breast) [µM],TGI (T-47D breast) [µM]
COc1cccc(NC(=O)CC(=O)N2N=C(N3c4ccccc4Sc4ccccc43)CC2c2ccccc2)c1 (centres undefined),> 100,> 100,> 100,> 100,> 100,> 100,> 100,–,–,–,–,–,–,–,–,–,–,–,–,–
CCCN(CCC)C(=O)C(=O)c1c(N)[nH]n(-c2ccccc2)c1=O,> 100,> 100,> 100,> 100,> 100,–,> 100,> 100,–,–,–,–,–,–,–,–,–,–,–,–
CN(C)C(=O)c1cnc2oc3ccc(O)cc3c2c1-c1ccccc1,–,> 25,> 25,> 25,> 25,> 25,> 25,> 25,> 25,> 25,> 25,> 25,20.2,11.7,> 25,–,–,–,–,–
COc1cnc2c(c1)C(=O)c1c-2n(CCCNC2=NCCS2)c(=O)c2cc(Cl)ccc12,2.68,–,2.82,1.81,2.06,2.51,3.11,–,–,–,1.33,0.0829,0.088,1.23,1.53,1.36,–,–,–,–
CCOC(=O)/C(O)=C(/C(=O)OC)c1ccc(Cl)cc1,> 100,–,> 100,> 100,> 100,> 100,> 100,> 100,–,–,–,–,–,–,–,–,–,–,–,–
COc1cc([N+](=O)[O-])c(OC)cc1-c1nc2sccn2c1/C=N/N=C(N)N,–,45.4,> 100,> 100,35.3,–,54.2,> 100,19.3,1.03,4.36,40.8,4.86,–,21.5,–,19,43.9,22.2,> 100
C[C@]12CCC(=O)CC1CCCC2=O (some centres undefined),> 100,> 100,> 100,> 100,> 100,> 100,> 100,> 100,–,–,–,–,–,–,–,–,–,–,–,–
O=C(O)c1nc(-c2ccc(Cl)c(Cl)c2)nc2ccc(Cl)cc12,> 100,–,> 100,–,> 100,35.4,> 100,> 10,–,–,–,–,–,–,–,–,–,–,–,–
Cc1[nH]c2ccc(F)cc2c1-c1nc2c3cccnc3c3ncccc3c2[nH]1,> 100,–,> 100,> 100,> 100,> 100,–,> 100,–,0.353,0.391,0.278,0.205,0.422,–,0.321,–,–,0.357,> 100
[O-]c1ccccc1/C=N/C(/N=C/c1ccccc1[O-])c1ccccc1O.[O-]c1ccccc1/C=N/C(/N=C/c1ccccc1[O-])c1ccccc1O.[Zr+4],> 100,–,> 100,> 100,> 100,61.1,> 100,> 100,–,44.3,38.6,46.6,28,3.8,33.4,34.7,12.5,60,28.3,> 100
O=S(=O)(c1cccc2c(I)cccc12)N1CCCNCC1,35.1,32.5,33.9,39.2,> 100,–,43.2,30.4,14.1,10.9,16.3,19.8,26.6,–,23.1,17.4,15.4,39.5,25.4,64.9
O=[N+]([O-])c1cc(Cl)cnc1Br,3.05,25.4,19,16.3,5.81,–,22.6,6.08,–,–,–,–,–,–,–,–,–,59.9,–,> 100
CCN1C(=O)N(CC)C2C1NN=c1s/c(=C\c3ccccn3)c(=O)n12 (centres undefined),> 100,> 100,> 100,–,> 100,–,> 100,> 100,2.37,0.446,1.29,–,88.5,–,> 100,3.17,2.76,> 100,4.84,> 100
COc1ccc(N(/C=C/C(=O)C(F)(F)F)CC(=O)c2ccc(F)cc2)cc1,38.9,–,56,56.7,45.2,> 100,64.8,–,–,–,21.6,20.6,20.3,> 100,23.7,21.4,27.8,89.1,32.1,> 100
CCSc1nc(SCC)c2c(-c3ccc(OC)c(OC)c3)c(C#N)c(SCC)nc2n1,49.2,76.7,> 100,> 100,77.4,–,> 100,> 100,23.2,85.1,43.1,56.2,14.2,–,39.4,21,3,19.7,–,–
Cn1cc(-c2csc(-c3cn(CCCN4CCCCC4)c4ccccc34)n2)c2cccnc21,3.23,35.2,3.25,3.38,3.41,–,3.65,–,13.3,–,1.72,1.82,1.72,–,1.96,1.68,2.55,6.26,17.4,51.3
C[CH2][Sn]([CH2]C)([O]C(=O)c1ccccc1F)[O][Sn]([CH2]C)([CH2]C)[O]C(=O)c1ccccc1F,> 73.8,34.7,> 100,> 57.2,50.7,> 57.8,35.4,36.6,19,13.5,> 67.6,26.5,23.2,25.1,18.4,> 43.7,–,–,–,–
CC(=O)[O][Sn]([CH2]c1ccccc1)([CH2]c1ccccc1)[CH2]c1ccccc1,> 10,–,> 10,> 10,–,> 5.68,> 10,> 4.64,–,3.4,> 10,> 8.37,–,> 4.28,> 10,> 6.73,> 6.39,> 9.44,> 10,> 10

Compound,TGI (HCC-2998 colon) [µM],TGI (HOP-92 NSCLC) [µM],TGI (KM12 colon) [µM],TGI (M14 melanoma) [µM],TGI (SF-268 CNS) [µM],TGI (SNB-75 CNS) [µM],TGI (UACC-257 melanoma) [µM],TGI (K-562 leukemia) [µM],GI50 (HOP-92 NSCLC) [µM],GI50 (K-562 leukemia) [µM],GI50 (KM12 colon) [µM],GI50 (M14 melanoma) [µM],GI50 (SF-268 CNS) [µM],GI50 (SNB-75 CNS) [µM],GI50 (UACC-257 melanoma) [µM],GI50 (HCC-2998 colon) [µM],GI50 (HS 578T breast) [µM],TGI (HS 578T breast) [µM],GI50 (T-47D breast) [µM],TGI (T-47D breast) [µM]
O=S(=O)(/C=C/CS(=O)(=O)c1ccccc1)c1ccccc1,57.1,> 100,32.3,67.3,> 100,> 100,87,98.4,–,–,–,–,–,–,–,–,–,–,–,–
O=C1/C(=N\O)S(=O)(=O)c2ccccc21,> 100,> 100,> 100,> 100,> 100,> 100,> 100,> 100,–,–,–,–,–,–,–,–,–,–,–,–
Cc1ccc(-c2csc(NC(=O)N3CCN(c4cc5c(cc4F)c(=O)c(C(=O)O)cn5C4CC4)CC3)n2)cc1,> 100,3.91,> 100,> 100,> 100,9.55,6.58,> 100,0.431,0.881,0.458,1.2,0.371,0.289,2,0.699,0.666,> 100,–,–
C[C@]12CC[C@@H]3c4ccc(O)cc4CC[C@H]3[C@@H]1Cc1cnc(N)nc12,26.1,31.6,26.8,36.4,38.8,42.9,74.1,42.6,11.7,7.97,11.8,18.2,13.5,16.5,28.9,9.36,18.4,40.7,–,–
CC(C)(c1ccccc1)c1ccc(Oc2ccc(C#N)c(C#N)c2)cc1,> 100,> 100,> 100,> 100,> 100,–,–,> 100,–,–,> 100,–,–,–,–,> 100,–,–,–,–
CC1(C)CC2CC(CC(C)(C)C2=O)C1=O,> 100,> 100,> 100,> 100,> 100,> 100,> 100,> 100,–,–,–,–,–,–,–,–,–,–,–,–
CNC(=O)OCc1c2ccncc2c(C)c2c1[nH]c1ccc(OC)cc12,1.02,0.618,> 100,1.81,0.79,–,–,2.48,–,–,–,–,–,–,–,–,–,–,–,–
Cc1ccc(-c2nc3nc(-c4ccccc4)nc(N4CCNCC4)c3o2)cc1,2.86,3.13,1.36,3.25,4.02,3.02,3.8,0.521,1.48,0.235,0.345,1.77,1.75,1.58,1.98,1.4,–,–,0.832,2.6
COc1ccc(C(=O)/C=C/c2cccc(Nc3ccnc4cc(Cl)ccc34)c2)cc1,–,7.08,> 100,> 100,–,4.12,–,18.1,1.09,1.64,2.45,1.6,–,1.51,–,–,3.18,> 100,0.655,4.64
O=[N+]([O-])c1ccc(N=Nc2ccc(O)c3ccccc23)cc1,> 100,2.94,> 100,–,> 100,> 100,14.6,> 100,0.281,3.13,3.21,–,2.9,2.45,3.6,10.3,2.42,29.9,–,–
CN1CCc2[nH]nc(-c3n[nH]c4c3CN(C)CC4)c2C1,> 100,> 100,> 100,> 100,> 100,–,> 100,> 100,–,–,–,–,–,–,–,–,–,> 100,–,> 100
CC(=O)[CH-]C(=O)c1ccccc1.CC(=O)[CH-]C(=O)c1ccccc1.CC(=O)[CH-]C(=O)c1ccccc1.[In+3],–,49.8,> 100,> 100,> 100,> 100,> 100,> 100,17.8,31,61.7,26.8,19.9,19.8,46.2,–,–,–,–,–
O=C(NC(=Nc1ccccc1)SCCSC(=Nc1ccccc1)NC(=O)c1cccs1)c1cccs1,> 100,46.1,> 100,> 100,–,99.8,> 100,> 100,–,–,–,–,–,–,–,–,–,–,–,–
CCOC(=O)C1CCCCN1C(=O)c1ccc(Nc2cnc3cc(C(F)(F)F)ccc3n2)cc1 (centres undefined),–,5.93,27.8,29,32.7,–,29.8,> 100,–,15.1,13.1,14.9,13.2,–,15.7,–,3.18,14.7,6.91,> 100
O=C(N/C(=C\c1ccc(/C=C(\NC(=O)c2ccccc2)c2nc3ccccc3[nH]2)cc1)c1nc2ccccc2[nH]1)c1ccccc1,> 100,> 100,–,> 100,> 100,> 100,> 100,> 100,–,–,–,–,–,–,–,–,–,–,–,–
COc1ccc(COC2CC(OC)OC(C)C2OC(=O)c2ccccc2)cc1 (centres undefined),> 100,> 100,> 100,> 100,> 100,> 100,> 100,> 100,–,–,–,–,–,–,–,–,–,–,–,–
Oc1c(Cl)c(Cl)c(O)c2c1CCCC2,30.6,4.85,30.2,32.5,24.8,–,30.5,–,–,–,–,–,–,–,–,–,–,49.2,–,–
c1ccc2[nH]c(-c3cc(-c4ccc5c(c4)OCO5)n[nH]3)nc2c1,14,–,13.2,16.7,22.4,23.7,23.2,22.1,–,3.83,1.75,2.19,4.77,10.1,6,3.74,3.8,52.3,3.32,16.2
